Converted amounts (≈) assume the structure as drawn. Like-named read-outs stand apart in the source and are kept apart here.
Key:
Test in all cases: In vitro antibacterial activity, agar dilution method (clinical isolates)
Format in all cases: cell-based
[1] = system: Proteus mirabilis; details: read-out: MIC90 Proteus mirabilis
Source text: (§1) Bacterial strains for test: All the bacterial strains are clinical isolates and purchased from public organizations. methicillin-sensitive staphylococcus aureus (MS SA), methicillin-resistant staphylococcus aureus (MRSA), methicillin-sensitive staphylococcus epidermidis (MSSE), methicillin-resistant staphylococcus epidermidis (MRSE), streptococcus pyogenes, penicillin-sensitive streptococcus pneumoniae (PSSP), penicillin-resistant streptococcus pneumoniae (PRSP), Escherichia coli, Citrobacter freundii, Enterobacter cloacae, Hemophilus influenza, Klebsiella pneumonia (producing ESBL), Morganella morganii, Proteus mirabilis, Serratia marcescens, and Pseudomonas aeruginosa.
(§2) Drugs to be tested: compounds of the invention prepared in the examples; the chemical names, structural formulae, preparation materials, and preparation methods are provided in the preparation examples of the compounds;
(§3) Meropenem (Meropenem for injection), Ertapenem (Ertapenem for injection), and Doripenem (Doripenem for injection) commercially available
(§4) Experimental method: the agar dilution method, by reference to Methodology of Pharmacological Experiment (XU Shuyun et al, published by the Peoples Medical Publishing House, 1st Edition, August, 1982; 3rd Edition, 5th printing, January 2002, p 1659-1660).

[2] = system: penicillin-resistant streptococcus pneumoniae (PRSP); details: clinically isolated strains, Gram-positive, read-out: MIC90 S. pneumoniae PRSP
Source text: as §1, §2, §3, §4

[3] = system: Citrobacter freundii; details: clinically isolated strains, Gram-negative
Source text: as §1, §2, §3, §4

[4] = system: methicillin-resistant staphylococcus aureus (MRSA); details: clinically isolated strains, Gram-positive, read-out: MIC90 S. aureus MRSA
Source text: as §1, §2, §3, §4

[5] = system: Morganella morganii; details: clinically isolated strains, Gram-negative
Source text: as §1, §2, §3, §4

[6] = system: methicillin-sensitive staphylococcus epidermidis (MSSE); details: read-out: MIC90 S. epidermidis MSSE
Source text: as §1, §2, §3, §4

[7] = system: Enterobacter cloacae; details: read-out: MIC90 Enterobacter cloacae
Source text: as §1, §2, §3, §4

[8] = system: Klebsiella pneumonia (producing ESBL); details: Klebsiella pneumoniae, read-out: MIC90 Klebsiella pneumonia
Source text: as §1, §2, §3, §4

[9] = system: penicillin-sensitive streptococcus pneumoniae (PSSP); details: clinically isolated strains, Gram-positive, read-out: MIC90 S. pneumoniae PSSP
Source text: as §1, §2, §3, §4

[10] = system: streptococcus pyogenes; details: clinically isolated strains, Gram-positive, read-out: MIC90 S. pyogenes
Source text: as §1, §2, §3, §4

[11] = system: methicillin-resistant staphylococcus epidermidis (MRSE); details: clinically isolated strains, Gram-positive, read-out: MIC90 S. epidermidis MRSE
Source text: as §1, §2, §3, §4

[12] = system: Escherichia coli; details: clinically isolated strains, Gram-negative, read-out: MIC90 E. coli
Source text: as §1, §2, §3, §4

[13] = system: methicillin-sensitive staphylococcus aureus (MSSA); details: read-out: MIC90 S. aureus MSSA
Source text: as §1, §2, §3, §4

[14] = system: Serratia marcescens; details: read-out: MIC90 Serratia marcescens
Source text: as §1, §2, §3, §4

[15] = system: Hemophilus influenza; details: read-out: MIC90 Hemophilus influenza
Source text: as §1, §2, §3, §4

[16] = system: Pseudomonas aeruginosa; details: clinically isolated strains, Gram-negative
Source text: as §1, §2, §3, §4

[17] = clinically isolated strains, Gram-negative, agar dilution
[18] = clinically isolated strains, Gram-positive, agar dilution
[19] = clinically isolated strains (producing ESBL), Gram-negative, agar dilution

Row | SMILES | MIC90 [1, 17] | MIC90 [2] | MIC90 [3] | MIC90 [4] | MIC90 [5] | MIC90 [6, 18] | MIC90 [7] | MIC90 [8] | MIC90 [9] | MIC90 [10] | MIC90 [11] | MIC90 [12] | MIC90 [13, 18] | MIC90 [14] | MIC90 [16] | MIC90 [7, 17] | MIC90 [8, 19] | MIC90 [14, 17] | MIC90 [15, 17] | further results
1 | C[C@@H](O)[C@H]1C(=O)N2C(C(=O)O)=C(S[C@H]3CCN(S(N)(=O)=O)C3)[C@H](C)[C@H]12 [Compound 2, (4R,5S,6S)-3-[(3S)-N-aminosulfonyl-pyrrolidin-3-yl]thio-6-[(1R)-1-hydroxyethyl]-4-methyl-7-oxo-1-aza-bicyclo-[3.2.0]hept-2-ene-2-carboxylic acid] | 0.63 µg/mL (≈ 1.61 µM) | 0.5 µg/mL (≈ 1.28 µM) | 0.032 µg/mL (≈ 0.0817 µM) | 16 µg/mL (≈ 40.9 µM) | 0.063 µg/mL (≈ 0.161 µM) | 0.063 µg/mL (≈ 0.161 µM) | 0.125 µg/mL (≈ 0.319 µM) | 0.125 µg/mL (≈ 0.319 µM) | 0.016 µg/mL (≈ 0.0409 µM) | 0.008 µg/mL (≈ 0.0204 µM) | 8 µg/mL (≈ 20.4 µM) | 0.016 µg/mL (≈ 0.0409 µM) | 0.063 µg/mL (≈ 0.161 µM) | 0.125 µg/mL (≈ 0.319 µM) | 8 µg/mL (≈ 20.4 µM) |  |  |  |  | MIC90 [15]: 0.125 µg/mL (≈ 0.319 µM)
2 | C[C@@H](O)[C@H]1C(=O)N2C(C(=O)O)=C(SC3CCCN(S(N)(=O)=O)C3)[C@H](C)[C@H]12 (stereo partly drawn) [Compound 3, (4R,5S,6S)-3-[N-aminosulfonyl-piperidin-3-yl]thio-6-[(1R)-1-hydroxyethyl]-4-methyl-7-oxo-1-aza-bicyclo-[3.2.0]hept-2-ene-2-carboxylic acid] | 0.125 µg/mL (≈ 0.308 µM) | 0.5 µg/mL (≈ 1.23 µM) | 0.063 µg/mL (≈ 0.155 µM) | 16 µg/mL (≈ 39.5 µM) | 0.032 µg/mL (≈ 0.0789 µM) | 0.125 µg/mL (≈ 0.308 µM) |  |  | 0.016 µg/mL (≈ 0.0395 µM) | 0.008 µg/mL (≈ 0.0197 µM) | 8 µg/mL (≈ 19.7 µM) | 0.032 µg/mL (≈ 0.0789 µM) | 0.125 µg/mL (≈ 0.308 µM) |  | 16 µg/mL (≈ 39.5 µM) | 0.125 µg/mL (≈ 0.308 µM) | 0.063 µg/mL (≈ 0.155 µM) | 0.125 µg/mL (≈ 0.308 µM) | 0.25 µg/mL (≈ 0.617 µM) | 
3 | C[C@@H](O)[C@H]1C(=O)N2C(C(=O)O)=C(SC3CN=CN(S(N)(=O)=O)C3)[C@H](C)[C@H]12 (stereo partly drawn) [Compound 4, (4R,5S,6S)-3-[1(4H)-aminosulfonyl-5,6-dihydropyrimidin-5-yl]-thio-6-[(1R)-1-hydroxyethyl]-4-methyl-7-oxo-1-aza-bicyclo-[3.2.0]hept-2-ene-2-carboxylic acid] |  | 1 µg/mL (≈ 2.47 µM) | 0.032 µg/mL (≈ 0.0791 µM) | 8 µg/mL (≈ 19.8 µM) | 0.063 µg/mL (≈ 0.156 µM) | 0.063 µg/mL (≈ 0.156 µM) | 0.125 µg/mL (≈ 0.309 µM) |  | 0.016 µg/mL (≈ 0.0396 µM) | 0.016 µg/mL (≈ 0.0396 µM) | 16 µg/mL (≈ 39.6 µM) | 0.032 µg/mL (≈ 0.0791 µM) |  | 0.125 µg/mL (≈ 0.309 µM) | 32 µg/mL (≈ 79.1 µM) |  | 0.063 µg/mL (≈ 0.156 µM) |  | 0.125 µg/mL (≈ 0.309 µM) | MIC90 [1]: 0.125 µg/mL (≈ 0.309 µM); MIC90 [13]: 0.125 µg/mL (≈ 0.309 µM)
4 | C[C@@H](O)[C@H]1C(=O)N2C(C(=O)O)=C(SC3CNCN(S(N)(=O)=O)C3)[C@H](C)[C@H]12 (stereo partly drawn) [Compound 5, (4R,5S,6S)-3-[1(2H)-aminosulfonyl-tetrahydropyrimidin-5-yl]-thio-6-[(1R)-1-hydroxyethyl]-4-methyl-7-oxo-1-aza-bicyclo-[3.2.0]hept-2-ene-2-carboxylic acid] | 0.063 µg/mL (≈ 0.155 µM) | 1 µg/mL (≈ 2.46 µM) | 0.032 µg/mL (≈ 0.0787 µM) | 16 µg/mL (≈ 39.4 µM) | 0.063 µg/mL (≈ 0.155 µM) |  |  | 0.125 µg/mL (≈ 0.308 µM) | 0.016 µg/mL (≈ 0.0394 µM) | 0.016 µg/mL (≈ 0.0394 µM) | 16 µg/mL (≈ 39.4 µM) | 0.032 µg/mL (≈ 0.0787 µM) | 0.25 µg/mL (≈ 0.615 µM) |  | 16 µg/mL (≈ 39.4 µM) | 0.25 µg/mL (≈ 0.615 µM) |  | 0.063 µg/mL (≈ 0.155 µM) | 0.125 µg/mL (≈ 0.308 µM) | MIC90 [6]: 0.125 µg/mL (≈ 0.308 µM)

— US20110046107A1, “SULFONYL-SUBSTITUTED CARBAPENEM COMPOUNDS” (priority 2007, published 2011)
